Measured values published in ChEMBL document CHEMBL3997849, “Modulation of the Inhibitors of Apoptosis Proteins (IAPs) Activities for Cancer Treatment” (ACS Med Chem Lett, 2017).

Experiments:
[1] = Inhibition of His-tagged XIAP BIR2-3 (125 to 356 residues) C202A/C213G double mutant (unknown origin) using fluorescein labeled SMAC peptide as substrate after 60 mins by HTRF assay; design: species or system Homo sapiens
[2] = target: E3 ubiquitin-protein ligase XIAP (Homo sapiens, UniProt P98170); test: Inhibition of His-tagged XIAP BIR3 (241 to 356 residues) (unknown origin) using fluorescein labeled SMAC peptide as substrate after 60 mins by HTRF assay
E3 ubiquitin-protein ligase XIAP, sequence (P98170 whole entry, the tested form may be a part): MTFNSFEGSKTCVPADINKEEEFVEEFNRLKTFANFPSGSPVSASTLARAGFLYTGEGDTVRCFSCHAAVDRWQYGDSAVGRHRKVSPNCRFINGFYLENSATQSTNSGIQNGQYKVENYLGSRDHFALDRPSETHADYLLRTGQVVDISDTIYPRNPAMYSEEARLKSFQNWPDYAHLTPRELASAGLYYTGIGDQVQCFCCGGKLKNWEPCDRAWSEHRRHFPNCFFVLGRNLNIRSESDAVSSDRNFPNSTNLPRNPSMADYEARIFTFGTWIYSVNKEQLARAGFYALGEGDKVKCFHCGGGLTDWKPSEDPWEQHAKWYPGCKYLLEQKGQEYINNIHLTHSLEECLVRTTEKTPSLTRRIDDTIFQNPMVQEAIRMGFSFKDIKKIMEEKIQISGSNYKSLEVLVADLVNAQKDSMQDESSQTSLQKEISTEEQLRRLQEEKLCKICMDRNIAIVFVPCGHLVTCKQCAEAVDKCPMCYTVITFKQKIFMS

Compound | IC50 [1] [nM] | IC50 [2] [nM]
CN[C@@H](C)C(=O)N[C@H](C(=O)N1C[C@@H](c2ccc(CC(NC(=O)[C@@H](NC(=O)[C@H](C)NC)C(C)(C)SCC(=O)NC(CO)CO)C(=O)N[C@@H]3CCCc4ccccc43)cc2)C[C@H]1C(=O)N[C@@H]1CCCc2ccccc21)C(C)(C)C (stereo partly specified) | 8.1 | 1.4
CN[C@@H](C)C(=O)N[C@H](C(=O)N1C[C@@H](c2ccc(C[C@H](NC(=O)[C@@H](NC(=O)[C@H](C)NC)C(C)(C)SCC(=O)N(C)C[C@@H](O)CO)C(=O)N[C@@H]3CCCc4ccccc43)cc2)C[C@H]1C(=O)N[C@@H]1CCCc2ccccc21)C(C)(C)C | 12.3 | –
CN[C@@H](C)C(=O)N[C@H](C(=O)N[C@@H](Cc1ccc([C@H]2C[C@@H](C(=O)N[C@@H]3CCCc4ccccc43)N(C(=O)[C@@H](NC(=O)[C@H](C)NC)C(C)(C)C)C2)cc1)C(=O)N[C@@H]1CCCc2ccccc21)C(C)(C)C | 6.8 | –
CN[C@@H](C)C(=O)N[C@H](C(=O)NC(Cc1ccc(NC(=O)c2ccc(C(=O)NC3C[C@@H](C(=O)N[C@@H]4CCCc5ccccc54)N(C(=O)[C@@H](NC(=O)[C@H](C)NC)C(C)(C)C)C3)cc2)cc1)C(=O)N[C@@H]1CCCc2ccccc21)C(C)(C)C (stereo partly specified) | 9.5 | 119
